Target: Mojave rattlesnake (Crotalus scutulatus scutulatus) venom type A (Crotalus scutulatus scutulatus, UniProt P62023)
Assay: Thrombelastography in human plasma of PLA2-dependent anticoagulant activity of venom
Type: biochemical
Description: With regard to materials and methods, Mojave rattlesnake (Crotalus scutulatus scutulatus) venom type A was originally obtained from the National Natural Toxins Research Center (NNTRC) located at Texas A&M University-Kingsville, Kingsville, TX, U.S.A. A previously unthawed aliquot of this venom used in a previous work (see, Nielsen V G (2019) J Thromb Thrombolysis 48, 256-262) was dissolved in calcium-free phosphate buffered saline (PBS, Sigma-Aldrich, Saint Louis, MO, USA) at a concentration of 50 mg/ml, and had been stored at −80° C. RuCl3 as obtained from Sigma-Aldrich, Saint Louis, MO, USA. Calcium chloride (CaCl2, 200 mM) was obtained from Haemonetics Inc., Braintree, MA, USA. Lastly, pooled normal human plasma (George King Bio-Medical, Overland Park, KS, USA) anticoagulated with sodium citrate (9 parts blood to 1 part 0.105M sodium citrate) stored at −80° C. was utilized in all subsequently described experiments.
Specific volumes of subsequently described plasma and chemical additives varied by condition but summated to 360 μl. Sample composition consisted of 320 μl of plasma; 16.4 μl of PBS, 20 μl of 200 mM CaCl2, and 3.6 μl of one of five subsequently described solutions, which were placed into a disposable cup in a computer-controlled Thrombelastograph® hemostasis system (Model 5000, Haemonetics Inc., Braintree, MA, USA) at 37° C., and then rapidly mixed by moving the cup up against and then away from the plastic pin five times before leaving the mixture between the cup and pin. The following elastic modulus-based parameters previously described (see, Nielsen V G (2019) J Thromb Thrombolysis 48, 256-262; Nielsen V G, Frank N, Matika R W (2018) Biometals 31, 51-59; Nielsen V G, Frank N, Turchioe B J (2019) Blood Coagul Fibrinolysis 30, 379-384; Nielsen V G (2021) J Thromb Thrombolysis, doi: 10.1007/s11239-020-02373-4) were determined: time to maximum rate of thrombus generation (TMRTG): this is the time interval (minutes) observed prior to maximum speed of clot growth; maximum rate of thrombus generation (MRTG): this is the maximum velocity of clot growth observed (dynes/cm^2/second); and total thrombus generation (TTG, dynes/cm^2), the final viscoelastic resistance observed after clot formation. Data were collected until maximum amplitude was reached as determined by the software of the thrombelastographic system.
Experiments involving plasma exposure to RuCl3 and venom utilized the following five experimental conditions: 1) control condition (C)—no venom, 1% addition of PBS (v/v) to plasma; 2) RuCl3 in water condition (R/W)—no venom, 1% addition (v/v) of 100 μM RuCl3 dissolved in water to plasma (final concentration 1 μM); 3) RuCl3 in PBS condition (R/P)—no venom, 1% addition (v/v) of 100 μM RuCl3 dissolved in PBS to plasma (final concentration 1 μM); 4) venom condition (V)—venom addition (v/v, 125 ng/ml final concentration as previously reported) in PBS to plasma; and, 5) venom exposed to RuCl3 dissolved in PBS condition (V+R/P)—venom and 100 μM RuCl3 1% addition (v/v) in PBS to plasma. All the solutions used for these five conditions to be placed in plasma remained at room temperature for five minutes prior to addition.

[1] = venom exposed 5 min to 100 μM RuCl3 in PBS vs RuCl3 naïve venom, venom 125 ng/ml

With `[Cl][Ru]([Cl])[Cl]` [RuCl3, ruthenium(III) chloride] as the molecule, how does the “neurotoxic, anticoagulant PLA2 activity” value (RuCl3 dissolved in PBS, 100 μM) read?
Its value is “inhibited”.

And the “decrease in TMRTG values” [1]?
Its value is 47%.

And the “increase in MRTG values” [1]?
The value was 375%.

What about the “increase in TTG values” [1] of the same molecule?
The value was 231%.

And the “TMRTG, MRTG or TTG values” (venom exposed to 100 μM RuCl3 in PBS vs control condition (no venom))?
The value was “no significant differences”.

Reference: patent US20260216239A1 (Arizona Board of Regents on Behalf of the University of …, priority 2020, published 2026)
